Paper PMC5947527 (Chemical Science, 2015)
Non-standard residues stand in square brackets, D forms with d. Residues, ends and D or L forms follow the SMILES beside them. *: point of attachment. NBD = O=[N+]([O-])c1ccc(*)c2nonc12; Nle = CCCC[C@H](N)C(=O)O; Ahx = NCCCCCC(=O)O

Experiment: Stability in ARDS bronchoalveolar lavage fluid (MALDI-TOF MS)
Assay type: in vitro ADME, human
Conditions: for stability in ARDS BALF: human ARDS BALF pooled from three patients vs PBS, 5 and 30 min
Description: To determine the ability of UBI-3 to image bacteria in the continued presence of a complex inflammatory environment, bacteria were labelled with UBI-3 in the presence of broncho-alveolar lavage fluid (BALF) retrieved from ventilated ICU patients with Acute Respiratory Distress Syndrome (ARDS). ARDS BALF was utilised as ARDS is a severe life threatening pulmonary syndrome, characterized by a massive proteolytic and oxidative inflammatory environment within the distal alveolar region.[14] […] To design out susceptible amino acid cleavage points, a number of modifications were made (Table 1) and the functional consequences assessed. The chemical approaches pursued to improve resistance to degradation included replacing amino acids at the cleavage positions with non-natural amino acids such as N-methyl or D-amino acids,[15] and cyclisation of the peptide,[16] which could have the added benefit of enhancing affinity towards bacterial membrane.[17]
The Arg–Arg bonds were identified as the prominent position of degradation (Fig. 5) and Compounds UBI-4–9 (Table 1) were synthesised with a variety of substitutions around the degradation sites. The susceptible peptide bonds at P1–P2 and P7–P8 were blocked using N-MeArg (UBI-4), and to further mask these positions, a long polyethylene glycol (PEG) chain and/or a D-amino acid were positioned at the carboxylic and/or amino termini (UBI-5–7).
We hypothesized that cyclisation of the sequence would allow for greater stability and also improve bacterial affinity and therefore cyclic variants of UBI-3 were synthesized (UBI-10 and UBI-11), which were both found to be stable in BALF for 5 minutes (Fig. 7 and S3 ESI ^†). […] However, these studies also highlighted the degradation of UBI-10 at 10 minutes, guiding the temporal constraints of Smartprobe delivery and optical imaging.
Fig. 7 UBI-10 remains stable in ARDS BALF at 5 minutes. (A) Structure of UBI-10 with breakdown products in ARDS BALF. […] TEXT PRINTED IN THE PICTURE: UBI-10: Molecular Weight: 2118.41 | Fragment A: Molecular Weight: 1923.18 | Fragment B: Molecular Weight: 1980.23 DOUBTS OF THE COPYIST ABOUT THIS PICTURE: UBI-10, Molecular Weight: very small print, 2118.41 is the best reading; the digits 8 and 4 are uncertain / Fragment A, Molecular Weight: very small print, 1923.18 is the best reading; the digits 9, 3 and 8 are uncertain / Fragment B, Molecular Weight: very small print, 1980.23 is the best reading; the digits 9, 8 and 3 are uncertain […]
Supplementary Information
A Labelled-Ubiquicidin Antimicrobial Peptide for Immediate In Situ Optical Detection of Live Bacteria in Human Alveolar Lung Tissue
Ahsan R Akram, Nicolaos Avlonitis, Annamaria Lilienkampf, Ana M Perez-Lopez, Neil McDonald, Sunay V Chankeshwara, Emma Scholefield, Christopher Haslett, Mark Bradley & Kevin Dhaliwal.
Figure S1: MALDI-TOF MS spectra for a stability study of UBI-3 in PBS and in ARDS BALF […]
Figure S2. MALDI-TOF MS spectra of modified analogues UBI-4 to UBI-9 in Phosphate Buffered Saline and ARDS BALF over a period of 5 and 30min.
Figure S3: MALDI-TOF MS spectra of UBI-11 in Phosphate Buffered Saline vs ARDS BALF […]
Figure S4. Quantified fluorescence of confocal microscopy images of the compounds UBI-3, UBI-5 and UBI-10 on three bacteria and fluorescence retention following a PBS wash.
Figure S5: Fibered confocal fluorescence microscopy imaging of human lung and Calcein AM stained Methicillin sensitive S. aureus.
Experimental Details including Tables M1-4, Figure M1 and HPLC Chromatograms.
(also on this page, place not known: Electronic Supplementary Material (ESI) for Chemical Science. This journal is © The Royal Society of Chemistry 2015)
(1 picture or pasted object on this page, not shown here) […]
BALF Retrieval: Bronchoalveolar lavage was performed in the Intensive Care Unit (ICU), as previously described. S5 Pooled samples from three patients were used for stability assays. […]
Exposure to 488 nm light was limited to 5% […]

Row | SMILES | stability in ARDS BALF (MALDI-TOF MS) | time of degradation of the peptide in ARDS BALF (human ARDS BALF, MALDI-TOF MS) [min] | time stable in ARDS BALF (human ARDS BALF, MALDI-TOF MS) [min] | time at which degradation products form in ARDS BALF (human ARDS BALF, MALDI-TOF time course) [min]
1 | CCCC[C@H](NC(=O)[C@H](CCCNC(=N)N)NC(=O)[C@H](CCCNC(=N)N)NC(=O)[C@H](CCCCN)NC(=O)[C@H](C)NC(=O)[C@H](CCCNC(=N)N)NC(=O)CNC(=O)[C@@H](NC(=O)CCCCCNc1ccc([N+](=O)[O-])c2nonc12)[C@@H](C)O)C(=O)N[C@@H](CCC(N)=O)C(=O)N[C@@H](Cc1ccc(O)cc1)C(=O)N[C@@H](CC(N)=O)C(=O)N[C@@H](CCCNC(=N)N)C(=O)N[C@@H](CCCNC(=N)N)C(N)=O [UBI-3] ({NBD-Ahx}-TGRAKRR[Nle]QYNRR-NH2) | Unstable in ARDS BALF | < 5 |  | 
2 | CCCC[C@@H]1NC(=O)[C@H](CCCNC(=N)N)NC(=O)[C@H](CCCNC(=N)N)NC(=O)[C@H](CCCCN)NC(=O)[C@H](C)NC(=O)[C@H](CCCNC(=N)N)NC(=O)CNC(=O)[C@H]([C@@H](C)O)NC(=O)[C@@H](NC(=O)CCCCCNc2ccc([N+](=O)[O-])c3nonc23)CCCCNC(=O)CNC(=O)[C@H](CCCNC(=N)N)NC(=O)[C@H](CCCNC(=N)N)NC(=O)[C@H](CC(N)=O)NC(=O)[C@H](Cc2ccc(O)cc2)NC(=O)[C@H](CCC(N)=O)NC1=O [UBI-10] | Improved stability in ARDS BALF |  | 5 | 10
